Laboratory results taken from paper PMC3221503, “Study on Cytochrome P-450 Dependent Retinoic Acid Metabolism and its Inhibitors as Potential Agents for Cancer Therapy” (Scientia Pharmaceutica, 2011).
Read-outs that look alike come from different tables or passages of the source.

Assays:
[1] = system: cytochrome P-450 dependent retinoic acid metabolism in male rat hepatic microsomes; assay: RA metabolism assay: in vitro inhibition of retinoic acid metabolism by P-450 inhibitors; conditions: inhibitor 100 μM, RA 3 μM, male rat hepatic microsomes 0.12 mg/ml, 37°C, 15 min, mean of three determinations, (-) denotes stimulation of RA metabolism
Method: (§1) Controls (10 μl, DMSO) were also carried with each experiment.
(§2) The assay followed a previously described one [17]: The column was a 10 μm C18 μ Bondapak (3.9× 300mm, Millipore) and the mobile phase was acetonitrile: water: formic acid (75:25:0.05v/v) containing 10 mM ammonium acetate. Flow rate was 1.2 ml.Min^−1. Eluted ^3H compounds were detected on line by a model 970 detector (Reeve) using Hisafe III scintillation fluid. The retention time of ^3H-RA was 10 min and oxidative metabolites of ^3H-RA were detected, eluting samples over 3 to 7 min. Metabolism was determined from the % conversion of RA into its total metabolites based on AUC values.
(§3) Three separate experiments (each with triplicate tubes) were carried out.
(§4) The IC50 for ketoconazole and liarozole were determined for comparative purposes.
(§5) The IC50 was calculated from a plot of percentage inhibition versus log inhibitor concentration using Cricket Graph 1.3.

[2] = system: cytochrome P-450 dependent retinoic acid metabolism; assay: as above; conditions: male, rat
Method: as §1, §2, §3, §4, §5

[3] = system: cytochrome P-450 dependent retinoic acid metabolism in male rat hepatic microsomes; conditions: pH 7.4
Method: as §1, §2, §3, §4, §5

[4] = parameters: method as in PMID 1328295; conditions: cleared from the plasma; cited from earlier work
[5] = system: mouse embryo; parameters: method as in PMID 1965892; conditions: cited from earlier work
[6] = rat liver microsomes, pH 7.4, probe 3H-retinoic acid (RA), 3 μM

With `c1ccc(Cn2ccnc2)cc1` [1-Benzylimidazole] the “% Inhibition of retinoic acid metabolism” value [1] was 7.6%.
Work on `c1csc(-c2nnco2)c1` [2-(Thiophen-2-yl)-1,3,4-oxadiazole] yielded an inhibition at 15 min, 100 μM [2, 6] of 0%.
Work on `Cc1nc2cc(-c3ccccc3)ccc2o1` [2-Methyl-5-phenyl-1,3-benzoxazole] yielded an inhibition at 15 min, 100 μM [2, 6] of 18%.
Compound `Brc1ccc(-c2csnn2)cc1` [4-(4-Bromophenyl)-1,2,3-thiadiazole] has an inhibition at 15 min, 100 μM [2, 6] of 11.6%.
In the case of `O=c1cc(O)c2ccccc2o1` [4-Hydroxycoumarin], the “% Inhibition of retinoic acid metabolism” value [1] is reported as 38.50%.
In the case of `Clc1cccc(-c2cnco2)c1` [5-(3-Chlorophenyl)-1,3-oxazole], the inhibition at 15 min, 100 μM [2, 6] is reported as 8.6%.
For `Cc1ccc(-c2ncns2)cc1` [5-(4-Methylphenyl)-1,2,4-thiadiazole], the inhibition at 15 min, 100 μM [2, 6] was 4.8%.
Work on `COc1ccc2ccc(=O)oc2c1` [7-Methoxycoumarin] yielded an inhibition at 15 min, 100 μM [2, 6] of 11.7%.
`CCC1(c2ccc(N)cc2)CCC(=O)NC1=O` (stereo not drawn) [Aminoglutethimide] showed an inhibition at 15 min, 100 μM [2, 6] of 30.8%.
With `C[C@@H]1[C@H](O)[C@@H](C)/C=C/C=C/C=C/C=C/C=C/C=C/C=C/[C@H](O[C@@H]2O[C@H](C)[C@@H](O)[C@H](N)[C@@H]2O)C[C@@H]2O[C@](O)(C[C@@H](O)C[C@@H](O)[C@H](O)CC[C@@H](O)C[C@@H](O)CC(=O)O[C@H]1C)C[C@H](O)[C@H]2C(=O)O` [Amphotericin] the inhibition at 15 min, 100 μM [2, 6] was 6.24%.
Compound `CC(=O)Oc1ccccc1C(=O)O` [Aspirin] has an inhibition at 15 min, 100 μM [2, 6] of 5%.
For `C[C@@H](Cc1ccccc1)N(C)Cc1ccccc1` [Benzphetamine], the “% Inhibition of retinoic acid metabolism” value [3] was 46.0%.
`c1ccc(-c2ccc(C(c3ccccc3)n3ccnc3)cc2)cc1` (stereo not drawn) [Bifonazole] showed an inhibition at 15 min, 100 μM [2, 6] of 47.5%.
For `CN(C)CCCN1c2ccccc2Sc2ccc(Cl)cc21` [Chlorpromazine], the “% Inhibition of retinoic acid metabolism” value [1] was 85.0%, the “% Inhibition of retinoic acid metabolism” value ([1]; listed as chlorpromazine) was > 50% and the IC50 at 15 min [2, 6] was 16.9 ± 1.7 µM.
Compound `CN/C(=N/CCSCc1nc[nH]c1C)NC#N` [Cimetidine] has an inhibition at 15 min, 100 μM [2, 6] of 1%.
With `Clc1ccccc1C(c1ccccc1)(c1ccccc1)n1ccnc1` [Clotrimazole] the inhibition at 15 min, 100 μM [2, 6] was 34.4%.
Work on `O=c1ccc2ccccc2o1` [Coumarin] yielded an inhibition at 15 min, 100 μM [2, 6] of 37%.
`O=C(O)c1cc(-c2ccc(F)cc2F)ccc1O` [Diflunisal] showed an inhibition at 15 min, 100 μM [2, 6] of 2%.
With `Clc1ccc(COC(Cn2ccnc2)c2ccc(Cl)cc2Cl)cc1` (stereo not drawn) [Econazole] the inhibition at 15 min, 100 μM [2, 6] was 14%.
`COC1=CC(=O)C[C@@H](C)[C@]12Oc1c(Cl)c(OC)cc(OC)c1C2=O` [Griseofulvin] gave an inhibition at 15 min, 100 μM [2, 6] of 0%.
`NCCc1c[nH]cn1` [Histamine] gave an inhibition at 15 min, 100 μM [2, 6] of 0%.
`COc1ccc2c(c1)c(CC(=O)O)c(C)n2C(=O)c1ccc(Cl)cc1` [Indomethacin] showed an inhibition at 15 min, 100 μM [2, 6] of 0%.
For `CCC(C)n1ncn(-c2ccc(N3CCN(c4ccc(OCC5COC(Cn6cncn6)(c6ccc(Cl)cc6Cl)O5)cc4)CC3)cc2)c1=O` (stereo not drawn) [Itraconazole], the “% Inhibition of retinoic acid metabolism” value [1] was 68.7%, the IC50 at 15 min [2, 6] was 17.4 ± 1 µM and the inhibition at 15 min, 100 μM [2, 6] was > 50%.
`CC(=O)N1CCN(c2ccc(OCC3COC(Cn4ccnc4)(c4ccc(Cl)cc4Cl)O3)cc2)CC1` (stereo not drawn) [Ketoconazole] gave an IC50 at 15 min [2, 6] of 13.5 ± 1.3 µM and an inhibition at 15 min, 100 μM [2, 6] of 87.5%.
For `Clc1cccc(C(c2ccc3[nH]cnc3c2)n2ccnc2)c1` (stereo not drawn) [Liarozole], the IC50 at 15 min [2, 6] was 4.2 ± 0.1 µM and the inhibition at 15 min, 100 μM [2, 6] was 89%.
With `Clc1ccc(COC(Cn2ccnc2)c2ccc(Cl)cc2Cl)c(Cl)c1` (stereo not drawn) [Miconazole] the inhibition at 15 min, 100 μM [2, 6] was 13.5%.
In the case of `c1ccc(CCNCc2ccccc2)cc1` [N-Benzyl-2-phenylethanamine], the “% Inhibition of retinoic acid metabolism” value [1] is reported as 85.0%, the “% Inhibition of retinoic acid metabolism” value ([1]; listed as N-benzyl-2-phenylethanamine) is reported as > 50% and the IC50 at 15 min ([2]; pH 7.4) is reported as 17.1 ± 3.2 µM.
In the case of `O=C(Cn1ccnc1)c1ccc2ccccc2c1` [Nafimidone], the inhibition at 15 min, 100 μM [2, 6] is reported as 12%.
For `CCC1(c2ccc([N+](=O)[O-])cc2)CCC(=O)NC1=O` (stereo not drawn) [Nitroglutethimide], the “% Inhibition of retinoic acid metabolism” value [1] was −1.4%.
For `C[C@@H]1[C@H](O)[C@@H](C)/C=C/C=C/CC/C=C/C=C/C=C/C=C/C(O[C@H]2O[C@H](C)[C@@H](O)[C@H](N)[C@@H]2O)CC2O[C@](O)(CC(O)C(O)CCC(O)CC(O)CC(O)CC(=O)O[C@H]1C)CC(O)C2C(=O)O` (stereo partly drawn) [Nystatin], the “% Inhibition of retinoic acid metabolism” value [1] was 5.44%.
For `CCC1(c2ccccc2)C(=O)NC(=O)NC1=O` [Phenobarbitone], the “% Inhibition of retinoic acid metabolism” value [3] was 0.0%.
In the case of `CN1C(=O)CC(c2ccccc2)C1=O` (stereo not drawn) [Phensuximide], the inhibition at 15 min, 100 μM [2, 6] is reported as 3.5%.
In the case of `CCCC(C(=O)OCCN(CC)CC)(c1ccccc1)c1ccccc1` [Proadifen], the “% Inhibition of retinoic acid metabolism” value [1] is reported as 86.0%, the “% Inhibition of retinoic acid metabolism” value ([1]; listed as proadifen) is reported as > 50% and the IC50 at 15 min [2, 6] is reported as 1 ± 0.14 µM.
In the case of `CC(=O)C[C@H](c1ccccc1)c1c(O)c2ccccc2oc1=O` [R-Warfarin], the “% Inhibition of retinoic acid metabolism” value [1] is reported as 3.0%.
In the case of `CC1=C(/C=C/C(C)=C/C=C/C(C)=C/C(=O)O)C(C)(C)CCC1` [RA, All-trans-retinoic acid], the “plasma t ½” value [4] is listed as < 1 h, the “developmental / teratogenic effect” value ([5]; dose of 1 mg/Kg RA, mice) is listed as “no teratogenic effects” and the “increase in the level of RA in mouse embryo limb buds” value ([5]; dose of 10 mg/Kg body weight of RA) is listed as “approximately 50 fold”. The “developmental / teratogenic effect” value ([5]; dose of 10 mg/Kg body weight of RA, mouse) was “developmental abnormalities”.
With `CC(=O)C[C@@H](c1ccccc1)c1c(O)c2ccccc2oc1=O` [S-Warfarin] the “% Inhibition of retinoic acid metabolism” value [1] was 6.5%.
In the case of `c1ccc2[nH]c(-c3cscn3)nc2c1` [Thiabendazole], the inhibition at 15 min, 100 μM [2, 6] is reported as -4.31%.
For `O=C(O)/C=C\C(=O)O.S=C(NC1CCCCC1)N1CCC(c2cnc[nH]2)CC1` [Thiopermide maleate], the “% Inhibition of retinoic acid metabolism” value [1] was 3.4%.
